Source: patent publication US20150175599A1, “FAAH Inhibitors” (Ironwood Pharmaceuticals, Inc., priority 2010, published 2015)

The compounds below were run against T1, FAAH (Rattus norvegicus, UniProt P97612) (assay: FAAH inhibition, rat brain membrane homogenate assay). Settings: rat brain homogenate; average activity; read-out: Rat Brain Extract FAAH IC50.
T1 construct: For the assay of FAAH activity in rat brain membrane (RBM) homogenates; tissue Charles River (animals); host or cells: rat whole brain, membrane fraction
T1 sequence (P97612 1-579): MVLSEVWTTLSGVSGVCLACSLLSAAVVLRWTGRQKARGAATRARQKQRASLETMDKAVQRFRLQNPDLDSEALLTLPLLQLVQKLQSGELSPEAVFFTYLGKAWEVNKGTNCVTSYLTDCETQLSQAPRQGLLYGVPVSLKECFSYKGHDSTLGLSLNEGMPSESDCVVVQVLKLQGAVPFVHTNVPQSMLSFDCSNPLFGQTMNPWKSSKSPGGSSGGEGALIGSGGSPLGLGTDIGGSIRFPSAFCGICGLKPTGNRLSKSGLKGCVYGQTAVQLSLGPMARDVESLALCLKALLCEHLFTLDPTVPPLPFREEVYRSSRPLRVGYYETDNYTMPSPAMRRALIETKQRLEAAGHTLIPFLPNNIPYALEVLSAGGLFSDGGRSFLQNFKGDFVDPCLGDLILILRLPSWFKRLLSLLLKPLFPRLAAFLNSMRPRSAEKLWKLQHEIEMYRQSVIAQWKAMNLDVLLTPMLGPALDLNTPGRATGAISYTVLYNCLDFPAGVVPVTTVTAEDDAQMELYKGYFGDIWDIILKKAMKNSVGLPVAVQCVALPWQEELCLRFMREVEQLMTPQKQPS
Assay type: biochemical
Protocol: Adult rats (Charles River CD strain, female, 200 g) were anaesthetized with isofluorane and rapidly decapitated. Each brain was quickly removed and chilled in tubes (3 brains per tube) on ice. About 25 mL of “homogenization buffer” (20 mM HEPES buffer, pH 7.0, with 1 mM MgCl2) was added to 15 to 20 g of brain. The brains were homogenized on ice for 1 minute using an Omni GLH homogenizer (Omni International, Marietta, Ga.). The homogenates were then transferred to three centrifuge tubes and centrifuged at 36,500 g for 20 minutes at 4° C. The supernatant was discarded and each pellet was re-suspended in 25 mL homogenization buffer. The re-suspended material was again centrifuged (36,500 g, 20 minutes at 4° C.). Pellets were combined by re-suspension in 10 mL of homogenization buffer and incubated in a 37° C. water bath for 15 minutes. The tubes were then placed on ice for 5 minutes followed by centrifugation at 36,500 g for 20 minutes at 4° C. The supernatant was discarded and the membrane pellets were then re-suspended in 40 mL of “re-suspension buffer” (50 mM Tris-HCl buffer, pH 7.4, containing 1 mM EDTA and 3 mM MgCl2). A Bradford Protein assay was performed to determine protein concentration. The protein was aliquotted into screw cap Cryo tubes each containing −400 μL, flash-frozen in liquid nitrogen and stored at −80° C. until used for the assay. A similar protocol was used to obtain brain membrane homogenates from mice
FAAH activity was assayed in the respective homogenates described herein (Rat brain, Mouse brain or Human brain) with certain of the exemplary compounds described above using a modification of the method of Omeir et al. (1995 Life Sci. 56:1999) and Fowler et al. (1997 J. Pharmacol. Exp. Ther. 283:729). For the assay of FAAH activity in rat brain membrane (RBM) homogenates, RBM homogenates (7 μg protein in 20 μL final volume of 10 mM Tris pH 6.5) were mixed with 180 μL of a mixture of the following: […] unlabelled anandamide (AEA), 0.03 Ci radio labeled anandamide [ethanolamine 1-^3H](40-60 Ci/mmol; product number ART-626, American Radiolabelled Chemicals, St. Louis, Mo.), 1 mg/mL Bovine Serum Albumin (fatty acid-free BSA, electrophoresis grade, Sigma, St. Louis, Mo.), 10 mM Tris-HCl (pH 6.5), and 1 mM EDTA in the presence and absence of test compounds (vehicle was DMSO at a final concentration of 1%) and incubated for 10 minutes at 37° C. Samples were placed on ice to terminate the reactions.
The ^3H-ethanolamine product and un-reacted ^3H-anandamide substrate were then separated by either: (1) using chloroform/methanol extraction or (2) passing the reaction mixture through a glass fiber filter containing activated charcoal. Samples were extracted with chloroform/methanol by adding 0.4 mL of chloroform/methanol (1:1 v/v), vigorously mixing the samples, and separating the aqueous and organic phases by centrifugation. Radioactivity (corresponding to FAAH-catalyzed breakdown of ^3H-anandamide) found in aliquots (0.2 mL) of the aqueous phase was determined by liquid scintillation counting with quench correction. IC50 values were determined as described by Jonsson et al. (2001 Br. J Pharmacol. 133:1263). Alternatively, reactions were purified using a modification of the solid-phase extraction method described by Wilson et al (2003 Anal. Biochem. 318: 270). This method was modified as follows: after reactions were incubated at 37° C. for 10 minutes and chilled on ice, the reaction mixtures were acidified by adding 10 μL of sodium phosphate solution[0.5M (pH 2.0)]. Next, 90 μL aliquots of the acidified reaction mixtures were applied to activated charcoal (that had been previously washed with methanol as described by Wilson et al. (supra)) containing 80 μL of water on top of a glass fiber filter, centrifuged, and the radioactivity in the eluate was counted as described previously by Wilson et al. (supra). […]

`CNCc1ccc2c(c1)c(C(=O)C(=O)Nc1ccnc(OC)c1)c(C)n2Cc1ccc(Cl)cc1` [Compound 25, 2-(1-(4-chlorobenzyl)-2-methyl-5-((methylamino)methyl)-1H-indol-3-yl)-N-(2-methoxypyridin-4-yl)-2-oxoacetamide] was tested. Which IC50 did it give?
Its IC50 is 1000 to 10000 nM.

Which IC50 does the source give for `COc1cc(NC(=O)C(=O)c2c(C)n(Cc3ccc(Cl)cc3)c3ccc(CN(C)C)cc23)ccn1` [Compound 26, 2-(1-(4-chlorobenzyl)-5-((dimethylamino)methyl)-2-methyl-1H-indol-3-yl)-N-(2-methoxypyridin-4-yl)-2-oxoacetamide] here?
Its IC50 is 100 to 1000 nM.

With `C=Cc1ccc2c(c1)c(C(=O)C(=O)Nc1ccnc(OC)c1)c(C)n2Cc1ccc(Cl)cc1` [Compound 27, 2-(1-(4-chlorobenzyl)-2-methyl-5-vinyl-1H-indol-3-yl)-N-(2-methoxypyridin-4-yl)-2-oxoacetamide] as the compound, how does the IC50 read?
The IC50 was less than 100 nM.

`COc1cnc2c(c1)c(C(=O)C(=O)Nc1ccnc(OC)c1)c(C)n2Cc1ncc(Cl)cc1Cl` [Compound 29, 2-(1-((3,5-dichloropyridin-2-yl)methyl)-5-methoxy-2-methyl-1H-pyrrolo[2,3-b]pyridin-3-yl)-N-(2-methoxypyridin-4-yl)-2-oxoacetamide] was tested. Which IC50 did it give?
Its IC50 is less than 100 nM.

With `COc1cc(NC(=O)C(=O)c2c(C)n(Cc3ncc(Cl)cc3Cl)c3ccc(C)cc23)ccn1` [Compound 30, 2-(1-((3,5-dichloropyridin-2-yl)methyl)-2,5-dimethyl-1H-indol-3-yl)-N-(2-methoxypyridin-4-yl)-2-oxoacetamide] as the compound, how does the IC50 read?
The IC50 was less than 100 nM.

For `COc1cc(NC(=O)C(=O)c2c(C)n(Cc3ncc(Cl)cc3Cl)c3ccccc23)ccn1` [Compound 31, 2-(1-((3,5-dichloropyridin-2-yl)methyl)-2-methyl-1H-indol-3-yl)-N-(2-methoxypyridin-4-yl)-2-oxoacetamide], which IC50 is on record?
The IC50 was less than 100 nM.

Which IC50 does the source give for `COc1ccc(Cn2c(C)c(C(=O)C(=O)Nc3ccnc(OC)c3)c3cc(OC)c(F)cc32)nc1` [Compound 32, 2-(6-fluoro-5-methoxy-1-((5-methoxypyridin-2-yl)methyl)-2-methyl-1H-indol-3-yl)-N-(2-methoxypyridin-4-yl)-2-oxoacetamide] here?
The IC50 was less than 100 nM.

How did the IC50 turn out when `COc1cc(NC(=O)C(=O)c2c(C)n(Cc3ncc(Cl)cc3F)c3ccc(C)cc23)ccn1` [Compound 33, 2-(1-((5-chloro-3-fluoropyridin-2-yl)methyl)-2,5-dimethyl-1H-indol-3-yl)-N-(2-methoxypyridin-4-yl)-2-oxoacetamide] was run?
Its IC50 is less than 100 nM.

`COc1cnc2c(c1)c(C(=O)C(=O)Nc1ccnc(OC)c1)c(C)n2Cc1ncc(Cl)cc1F` [Compound 34, 2-(1-((5-chloro-3-fluoropyridin-2-yl)methyl)-5-methoxy-2-methyl-1H-pyrrolo[2,3-b]pyridin-3-yl)-N-(2-methoxypyridin-4-yl)-2-oxoacetamide] was tested. Which IC50 did it give?
Its IC50 is less than 100 nM.

`COc1cc(NC(=O)C(=O)c2c(C)n(Cc3ccc(Cl)cc3)c3cnccc23)ccn1` [Compound 35, 2-(1-(4-chlorobenzyl)-2-methyl-1H-pyrrolo[2,3-c]pyridin-3-yl)-N-(2-methoxypyridin-4-yl)-2-oxoacetamide] was tested. Which IC50 did it give?
Its IC50 is 100 to 1000 nM.

`COc1cc(NC(=O)C(=O)c2c(C)n(Cc3ccc(Cl)cc3)c3ccc(OC)nc23)ccn1` [Compound 36, 2-(1-(4-chlorobenzyl)-5-methoxy-2-methyl-1H-pyrrolo[3,2-b]pyridin-3-yl)-N-(2-methoxypyridin-4-yl)-2-oxoacetamide] was tested. Which IC50 did it give?
Its IC50 is less than 100 nM.

`COc1cc(NC(=O)C(=O)c2c(C)n(Cc3ccc(Cl)cc3)c3ccncc23)ccn1` [Compound 37, 2-(1-(4-chlorobenzyl)-2-methyl-1H-pyrrolo[3,2-c]pyridin-3-yl)-N-(2-methoxypyridin-4-yl)-2-oxoacetamide] was tested. Which IC50 did it give?
Its IC50 is less than 100 nM.

With `COc1cnc2c(c1)c(C(=O)C(=O)Nc1ccnc(OC)c1)c(C)n2Cc1ccc(Cl)cc1` [Compound 38, 2-(1-(4-chlorobenzyl)-5-methoxy-2-methyl-1H-pyrrolo[2,3-b]pyridin-3-yl)-N-(2-methoxypyridin-4-yl)-2-oxoacetamide] as the compound, how does the IC50 read?
Its IC50 is less than 100 nM.

Which IC50 does the source give for `COc1ccc2c(c1)c(C(=O)C(=O)Nc1ccnc(OC)c1)c(C)n2Cc1ccc(S(C)(=O)=O)cc1` [Compound 39, 2-(5-methoxy-2-methyl-1-(4-(methylsulfonyl)benzyl)-1H-indol-3-yl)-N-(2-methoxypyridin-4-yl)-2-oxoacetamide] here?
The IC50 was 1000 to 10000 nM.

How did the IC50 turn out when `COc1ccc(Cn2c(C)c(C(=O)C(=O)Nc3ccnc(OC)c3)c3cc(OC)cnc32)nc1` [Compound 40, 2-(5-methoxy-1-((5-methoxypyridin-2-yl)methyl)-2-methyl-1H-pyrrolo[2,3-b]pyridin-3-yl)-N-(2-methoxypyridin-4-yl)-2-oxoacetamide] was run?
The IC50 was less than 100 nM.

For `COc1cnc2c(c1)c(C(=O)C(=O)Nc1ccnc(OC)c1)c(C)n2Cc1ccc(Cl)cn1` [Compound 41, 2-(1-((5-chloropyridin-2-yl)methyl)-5-methoxy-2-methyl-1H-pyrrolo[2,3-b]pyridin-3-yl)-N-(2-methoxypyridin-4-yl)-2-oxoacetamide], which IC50 is on record?
Its IC50 is less than 100 nM.

How did the IC50 turn out when `COc1cnc2c(c1)c(C(=O)C(=O)Nc1ccnc(OC)c1)c(C)n2Cc1ccc(Cl)cc1Cl` [Compound 42, 2-(1-(2,4-dichlorobenzyl)-5-methoxy-2-methyl-1H-pyrrolo[2,3-b]pyridin-3-yl)-N-(2-methoxypyridin-4-yl)-2-oxoacetamide] was run?
The IC50 was less than 100 nM.

How did the IC50 turn out when `COc1ccc(Cn2c(C)c(C(=O)C(=O)Nc3ccnc(OC)c3)c3cc(OC)ccc32)nc1` [Compound 43, 2-(5-methoxy-1-((5-methoxypyridin-2-yl)methyl)-2-methyl-1H-indol-3-yl)-N-(2-methoxypyridin-4-yl)-2-oxoacetamide] was run?
The IC50 was less than 100 nM.

How did the IC50 turn out when `COc1cc(NC(=O)C(=O)c2c(C)n(Cc3ccc(Cl)cc3)c3cc(OC)c(OC)cc23)ccn1` [Compound 44, 2-(1-(4-chlorobenzyl)-5,6-dimethoxy-2-methyl-1H-indol-3-yl)-N-(2-methoxypyridin-4-yl)-2-oxoacetamide] was run?
Its IC50 is less than 100 nM.

For `COc1cc(NC(=O)C(=O)c2c(C)n(Cc3ccc(Cl)cc3)c3cccc(OC)c23)ccn1` [Compound 45, 2-(1-(4-chlorobenzyl)-4-methoxy-2-methyl-1H-indol-3-yl)-N-(2-methoxypyridin-4-yl)-2-oxoacetamide], which IC50 is on record?
The IC50 was less than 100 nM.

With `COc1ccc2c(c1)c(C(=O)C(=O)Nc1ccnc(OC)n1)c(C)n2Cc1ccc(Cl)cc1` [Compound 46, 2-(1-(4-chlorobenzyl)-5-methoxy-2-methyl-1H-indol-3-yl)-N-(2-methoxypyrimidin-4-yl)-2-oxoacetamide] as the compound, how does the IC50 read?
Its IC50 is less than 100 nM.
